{"source": "patent US20230398130A1", "about": "“METHODS AND COMPOSITIONS FOR DIFFERENTIATING STEM CELLS” (Massachusetts Institute of Technology, priority 2020, published 2023)", "key": {"ISC-enriched organoids [1]": {"system": "ISC-enriched organoids", "assay": "Secondary (validation) screen, 384-well 2.5-D, ENR+CD 6 days, n=8 wells, vs ENR+CD+DMSO control: basal lysozyme secretion (LYZ.NS)", "type": "cell-based, murine"}, "ISC-enriched organoids [2]": {"system": "ISC-enriched organoids", "assay": "Secondary (validation) screen, 384-well 2.5-D, ENR+CD 6 days, n=8 wells, vs ENR+CD+DMSO control: ATP (CTG)", "type": "cell-based, murine"}, "Paneth cells": {"system": "Paneth cells", "assay": "In vivo oral gavage of KPT-330 every other day for two weeks: histological counting of Paneth, Olfm4+ stem and PAS+ goblet cells in small intestine", "parameters": "species or system C57BL/6 wild-type mice", "method": "Applicants tracked animal weight every other day, and at day 14 collected the proximal and distal thirds of the small intestine for histological quantification of Paneth, stem, and goblet populations (FIG. 26A). […] Samples were prepared for histology by the 'swiss-roll' technique, and following staining, were blinded and randomized before manual counting of well-preserved features. […] Animal study. 8-10 weeks old wild type C57BL/6NCrl male mice (#027) were purchased from Charles River. […] All animal studies are approved by the Committee on Animal Care (CAC) at Massachusetts Institute of Technology. Histology. The small intestine (SI) was collected from mice and divided into three parts. Only proximal and distal SI were kept in PBS, and medial SI was discarded. Each SI was opened longitudinally and washed in PBS. […] Fixed tissues were embedded in paraffin, and […] sections were mounted on slides. […] For McManus Periodic Acid Schiff (PAS) reaction, slides were deparaffinized, oxidized in periodic acid, and stained with Schiff reagent (Poly Scientific, s272) followed by counterstaining with Harris Hematoxylin. Slides were scanned by Aperio Slide Scanner (Leica) and cells were counted on Aperio eSlide Manager. Slides were randomized before counting, and all cell types were counted in all well-preserved crypts along the longitudinal crypt-villus axis. […] Because Paneth cell number and quality is known to physiologically change along the length of the small intestine, and diseases associated with Paneth cells most frequently present distally^56, Applicants sought to profile how XPO1 inhibition may differentially affect proximal and distal small intestine. Applicants tracked animal weight every other day and collected the proximal and distal thirds of the small intestine at day 14 for histological quantification of Paneth, stem, and goblet populations (FIG. 61A). […] Paneth cells were counted within well-preserved crypts-with at least 30 crypts quantified per animal (representative images FIG. 62C) and the counts were averaged. […] Animal study. 8-10 weeks old wild type C57BL/6NCrl male mice (#027) were purchased from Charles River. […] All animal studies are approved by the Committee on Animal Care (CAC) at Massachusetts Institute of Technology. Histology. The small intestine (SI) was collected from mice and divided into three parts. Only proximal and distal SI were kept in PBS, and medial SI was discarded. Each SI was opened longitudinally and washed in PBS. […] Fixed tissues were embedded in paraffin, and […] sections were mounted on slides. […] For McManus Periodic Acid Schiff (PAS) reaction, slides were deparaffinized, oxidized in periodic acid, and stained with Schiff reagent (Poly Scientific, s272) followed by counterstaining with Harris Hematoxylin. Slides were scanned by Aperio Slide Scanner (Leica) and cells were counted on Aperio eSlide Manager. Slides were blinded and randomized before counting, and all cell types were counted in all well-preserved crypts along the longitudinal crypt-villus axis (Paneth cell: >30 crypts, Olfm4+ cell: ≥17 crypts, Goblet cell: >15 villi, per sample). For the Goblet cell images, the samples that include less than 15 well-preserved crypt-villus axes were excluded, which was predetermined."}, "small intestine": {"system": "small intestine", "parameters": "cycling cell number: dose or concentration left out as unconfirmed", "source_text": "FIG. 20—KPT-330 treatment in vivo.\nFIG. 21A-21C—Analysis of samples collected from the mice of FIG. 20. A. Western blot for lysozyme of samples collected from the small intestine proximal region. B. Graph showing band intensity of the western blot in (A). C. Histological analysis of the distal small intestine from control and treated mice using immunohistochemistry for lysozyme.\nFIG. 22—Analysis of samples collected from the mice of FIG. 20. […] Graphs showing Paneth cell, Goblet cell, and cycling cell numbers in the proximal and distal small intestines under each treatment condition using markers for each cell type."}, "[3]": {"system": "human small intestinal organoids", "assay": "Single-cell RNA-seq (Seq-Well S^3) of human small intestinal organoids with or without KPT-330", "type": "cell-based", "quoted_text": "To more completely explore the changes induced by KPT-330 in this human organoid model, and any donor associated effects, Applicants again utilized scRNA-seq via Seq-Well S^3. Applicants performed a comparison between untreated and KPT-330-treated organoids from each donor over a 6-day differentiation, with each sample consisting of single cells from >1,000 organoids. The resulting dataset consists of 2,484 cells. UMI, percent mitochondrial, and detected gene distributions are similar across samples, within acceptable quality bounds (genes >500, UMI<30,000, percent mitochondrial <35) (FIG. 60A).\nFor both, organoids at each sampling were harvested from 4-6 pooled Matrigel domes, totaling >1,000 organoids per sample. Excess Matrigel was removed per previously described washing protocol, and organoids were resuspended in TrypLE at 37 C for 15 min, with vigorous homogenization through a p200 pipette tip every 5 min. After 15 min, the suspension was passed through a 30 uM cell strainer twice, and counted under brightfield microscopy with trypan blue staining for viable single cells. For human organoid scRNA-seq, antibody-based cell hashing was performed, with all samples pooled following labeling and three washes in FACS buffer to remove excess antibody. Each sample was manually counted to equally weight in cell pools, and then the pool was split and processed as four identical samples.\nAntibody hashed arrays were demultiplex with doublets and negative-staining cells removed following default settings of the Seurat function HTODemux.\nApplicants performed integrated analysis on a combined dataset of 2,484 cells, with quality metrics for gene number, captured UMIs, and percent mitochondrial genes reported in Supp. […] Dimensional reduction and clustering was performed following normalization in Seurat V3 via SCTransform^71. Applicants performed variable gene identification and dimensionality reduction utilizing the first 18 principal components based on the elbow method to identify 7 clusters using Louvain clustering (Resolution=0.5). […]"}}, "note": "“Also recorded” adds a separate entry of the source. Where two headings read alike, the source gives them in different places.", "data": [{"smiles": "O=C(/C=C\\n1cnc(-c2cc(C(F)(F)F)cc(C(F)(F)F)c2)n1)NNc1cnccn1", "note": "[KPT-330]", "values": [{"measurement": "Z.LYZ.NS", "setting": "ISC-enriched organoids [1]; Dose 0.02 uM", "value": "−0.038"}, {"measurement": "repSSMD.LYZ.NS", "setting": "ISC-enriched organoids [1]; Dose 0.02 uM", "value": "−0.050"}, {"measurement": "Z.LYZ.NS", "setting": "ISC-enriched organoids [1]; Dose 0.04 uM", "value": "−0.318"}, {"measurement": "repSSMD.LYZ.NS", "setting": "ISC-enriched organoids [1]; Dose 0.04 uM", "value": "−0.506"}, {"measurement": "Z.LYZ.NS", "setting": "ISC-enriched organoids [1]; dose 0.08 uM", "value": 1.132}, {"measurement": "repSSMD.LYZ.NS", "setting": "ISC-enriched organoids [1]; dose 0.08 uM", "value": 1.621}, {"measurement": "increase in LYZ.NS (basal LYZ secretion) relative to ENR+CD control", "setting": "ISC-enriched organoids [1]; validated doses, secondary screen", "value": "50-75%"}, {"measurement": "Z.CTG", "setting": "ISC-enriched organoids [2]; Dose 0.02 uM", "value": 1.135}, {"measurement": "repSSMD.CTG", "setting": "ISC-enriched organoids [2]; Dose 0.02 uM", "value": 0.959}, {"measurement": "Z.CTG", "setting": "ISC-enriched organoids [2]; Dose 0.04 uM", "value": 0.263}, {"measurement": "repSSMD.CTG", "setting": "ISC-enriched organoids [2]; Dose 0.04 uM", "value": 0.179}, {"measurement": "Z.CTG", "setting": "ISC-enriched organoids [2]; dose 0.08 uM", "value": 1.273}, {"measurement": "repSSMD.CTG", "setting": "ISC-enriched organoids [2]; dose 0.08 uM", "value": 0.916}, {"measurement": "Olfm4+ stem cells per crypt", "setting": "Paneth cells; 0.01 mg/kg, distal SI, day 14", "value": "significant increase in Olfm4+ stem cells"}, {"measurement": "fraction of crypts with more Paneth cells than the vehicle 90th percentile cutoff (5 per crypt)", "setting": "Paneth cells; 0.01 mg/kg, distal small intestine", "value": 27.9, "unit": "%"}, {"measurement": "Paneth cell abundance per crypt", "setting": "Paneth cells; 0.01 mg/kg, distal small intestine, day 14", "value": "significant increases in Paneth cell abundance"}, {"measurement": "Paneth cell abundance per crypt", "setting": "Paneth cells; 0.01 mg/kg, proximal small intestine, day 14", "value": "significant increases in Paneth cell abundance"}, {"measurement": "fraction of crypts with more Paneth cells than the vehicle 90th percentile cutoff (4 per crypt)", "setting": "Paneth cells; 0.2 mg/kg, proximal small intestine", "value": 15.5, "unit": "%"}, {"measurement": "Paneth cell abundance per crypt", "setting": "Paneth cells; 0.2 mg/kg, proximal small intestine, day 14", "value": "significant increases in Paneth cell abundance"}, {"measurement": "PAS+ goblet cell population", "setting": "Paneth cells; 0.01-0.2 mg/kg, proximal and distal SI, day 14", "value": "did not overserve any significant changes; also recorded: did not identify any significant changes"}, {"measurement": "additional Paneth cells per crypt in vivo", "setting": "Paneth cells; low dose KPT-330", "value": "0.5-1 Paneth cells per crypt"}, {"measurement": "Paneth cell number", "setting": "small intestine; distal small intestines, high dose", "value": "the high dose decreased Paneth cells"}, {"measurement": "cycling cell number", "setting": "small intestine; distal small intestines, low dose", "value": "significant increase in cycling cell number"}, {"measurement": "toxicity to mice", "setting": "small intestine; mouse, in vivo", "value": "toxic to mice"}, {"measurement": "Paneth cell number", "setting": "small intestine; proximal small intestines", "value": "no significant shift in Paneth cell number"}, {"measurement": "goblet cell numbers", "setting": "small intestine; proximal/distal small intestines", "value": "no significant shift in goblet cell numbers, but the trend was an increase"}, {"measurement": "LYZ expression (scRNA-seq)", "setting": "[3]; 160 nM KPT-330, 6 days, all donors", "value": "increased LYZ expression"}, {"measurement": "cell type composition (scRNA-seq)", "setting": "[3]; 160 nM KPT-330, 6 days, pan-donor", "value": "decreases in cycling stem and progenitor populations, increases in quiescent progenitors and enterocytes"}, {"measurement": "XPO1 expression (scRNA-seq)", "setting": "[3]; following KPT-330 treatment", "value": "compensatory increase in XPO1 expression"}]}]}
